{"source": "patent US20240342171A1", "about": "“DISCOVERY OF A F-ATP SYNTHASE INHIBITOR FOR THE TREATMENT OF MYCOBACTERIUM ABSCESSUS DISEASES” (priority 2021, published 2024)", "origin": "cited, not measured here", "key": {"M. abscessus": {"system": "M. abscessus", "settings": "for mode of action against M. abscessus: background statement; for MIC of clinically used anti-M. abscessus drugs: Brown-Elliott et al. 2016"}, "[1]": {"settings": "mouse liver microsomes; Hotra et al. 2020"}, "[2]": {"settings": "Hotra et al. 2020"}}, "data": [{"smiles": "COc1nc2ccc(Br)cc2cc1[C@@H](c1ccccc1)[C@@](O)(CCN(C)C)c1cccc2ccccc12", "note": "[BDQ, bedaquiline]", "values": [{"measurement": "mode of action against M. abscessus", "setting": "M. abscessus", "result": "mostly bacteriostatic"}]}, {"smiles": "CC(C)/N=c1\\cc2n(-c3ccc(Cl)cc3)c3ccccc3nc-2cc1Nc1ccc(Cl)cc1", "note": "[CFZ, clofazimine]", "values": [{"measurement": "MIC50", "setting": "M. abscessus; Ferro et al. 2016", "result": 6.8, "unit": "µM"}, {"measurement": "mode of action against M. abscessus", "setting": "M. abscessus", "result": "mostly bacteriostatic"}]}, {"smiles": "CCNc1cc(C)nc(Nc2ccc(NC(=O)c3cccc(Br)c3)cc2)n1", "note": "[GaMF1]", "values": [{"measurement": "metabolic stability", "setting": "[1]", "result": "good metabolic stability"}, {"measurement": "c log P", "setting": "[2]", "result": 4.37}]}, {"smiles": "COc1cc([C@](O)(CCN(C)C)[C@@H](c2cc3cc(Br)ccc3nc2OC)c2cc(OC)nc(OC)c2OC)cc(OC)n1", "note": "[TBAJ876]", "values": [{"measurement": "mode of action against M. abscessus", "setting": "M. abscessus", "result": "mostly bacteriostatic"}]}, {"smiles": "NCC[C@H](O)C(=O)N[C@@H]1C[C@H](N)[C@@H](O[C@H]2O[C@H](CN)[C@@H](O)[C@H](O)[C@H]2O)[C@H](O)[C@H]1O[C@H]1O[C@H](CO)[C@@H](O)[C@H](N)[C@H]1O", "note": "[amikacin]", "values": [{"measurement": "MIC of clinically used anti-M. abscessus drugs", "setting": "M. abscessus; Ferro et al. 2016", "result": 55, "unit": "µM"}]}, {"smiles": "CO[C@@]1(NC(=O)Cc2cccs2)C(=O)N2C(C(=O)O)=C(COC(N)=O)CS[C@@H]21", "note": "[cefocetin]", "values": [{"measurement": "MIC50 of first line drugs", "setting": "M. abscessus; […]", "result": 43, "unit": "µM"}]}, {"smiles": "CO[C@@]1(NC(=O)Cc2cccs2)C(=O)N2C(C(=O)O)=C(COC(N)=O)CS[C@@H]21", "note": "[cefoxitin]", "values": [{"measurement": "MIC of clinically used anti-M. abscessus drugs", "setting": "M. abscessus; Ferro et al. 2016", "result": 38, "unit": "µM"}]}, {"smiles": "CO[C@H]1/C=C/O[C@@]2(C)Oc3c(C)c(O)c4c(c3C2=O)C2=NC3(CCN(CC(C)C)CC3)NC2=C(NC(=O)/C(C)=C\\C=C\\[C@H](C)[C@H](O)[C@@H](C)[C@@H](O)[C@@H](C)[C@H](OC(C)=O)[C@@H]1C)C4=O", "note": "[rifabutin]", "values": [{"measurement": "MIC", "setting": "M. abscessus", "result": "1 to 4", "unit": "µM"}]}]}
